Results published in patent publication US20080226571A1, “Compositions and methods to effect enhanced photoprotection against UV A and UV B induced damage of human skin” (priority 2007, published 2008).
Marks after values point to notes of the source that are not given here.

Tests used:
Format in all cases: cell-based
[1] = test system: B16F1 mouse melanoma cells; assay: Intracellular melanin enhancement; settings: for Folds of Melanin Enhancement compared to control: Table E; for melanin enhancement activity, comparison in words: Tables C and E
Experimental: B16F1 mouse melanoma cells are treated with varying concentrations of actives I, II and III and other optional actives or combinations thereof at a time interval of 3 days for nine consecutive days. The intracellular melanin in both the controls and test B16F1 mouse melanoma cells is extracted by 1 N NaOH and subjected to a heat treatment at 100° C. The extracted melanin is estimated at 405 nm in a Fluostar Optima Microplate Reader.

[2] = test system: HaCaT human keratinocyte cell line; assay: UV B protection of HaCaT keratinocytes, topical application model (Protocol I, SRB viability); settings: for % UV B protection as compared to control: Table B, Topical model
Experimental: (§1) The protocol is based on evaluating the reduction in photo damage caused by UV A and UV B in HaCaT human keratinocyte cell line. The cell viability is measured by Sulphorhodamine B assay (SRB assay) after exposure to UV rays. The percentage of UV protection is calculated based on the number of viable cells in the control (untreated) and test HaCaT human keratinocytes (treated with the labdane-diterpenoids based composition of the present invention) after UV exposure. The photoprotection assays to screen compounds for their UV protection efficacy during topical and oral applications as discussed in J Am Acad Dermatol 2003; 49: 458-472 is adopted as a reference.
(§2) Protocol I—Screening compounds suited for topical applications for UV protection efficacy 0.5×10^4 HaCaT human keratinocyte cells/well are counted and seeded into a 96 well micro titer plates. The cells are incubated at 37° C. in 5% CO2 for 24 hours. The growth medium is then removed and replaced with medium containing varying concentrations of the labdane-diterpenoids based composition of the present invention. The cells are immediately exposed to ultraviolet irradiation and further incubated for 72 hours. After 72 hours, the cell viability is determined by SRB assay.
(§3) The UV A exposure in both the protocols involves three UV A bulbs providing 108 watts of power. The plates are exposed for 1 hour at a distance of 5 cm from the source of light. The UV B exposure in both the protocols involves three UV B bulbs which provide 100 μwatt/cm^2 or 0.14 J/cm^2 irradiation dose. The plates are exposed for 7 minutes at a distance of 30 cm from the source of light.

[3] = test system: HaCaT human keratinocyte cell line; assay: UV A protection of HaCaT keratinocytes, oral application model (Protocol II)
Experimental: as §1
(§4) Protocol II—Screening compounds suited for oral applications for UV protection efficacy 0.5×10^4 HaCaT human keratinocyte cells/well are counted and seeded into a 96 well micro titer plates. The cells are incubated at 37° C. in 5% CO2 for 24 hours. The growth medium is then removed and replaced with medium containing varying concentrations of the labdane-diterpenoids based composition of the present invention. The cells are then incubated for 24 hours to be followed by UV treatment. The UV treated cells are further incubated for 48 hours after which, cell viability is determined using the SRB or neutral red uptake assays.
as §3

[4] = test system: HaCaT human keratinocyte cell line; assay: UV B protection of HaCaT keratinocytes, oral application model (Protocol II)
Experimental: as §1, §4, §3

[5] = test system: HaCaT human keratinocyte cell line; assay: UV A protection of HaCaT keratinocytes, topical application model (Protocol I, SRB viability); settings: for % UV A protection: Topical model
Experimental: as §1, §2, §3

[6] = summary in words, Table I, HaCaT, topical and oral protocols not separated

In the case of `C=C[C@@]1(C)CC(=O)[C@]2(O)[C@@]3(C)CCCC(C)(C)[C@@H]3[C@H](O)[C@H](OC(C)=O)[C@@]2(C)O1` [7β-Acetoxy-6β,9α-dihydroxy-8,13-epoxy-labd-14-en-11-one], the “Folds of Melanin Enhancement compared to control” value ([1]; 0.25 μg/ml) is reported as 1 Folds, the “Folds of Melanin Enhancement compared to control” value ([1]; 0.5 μg/ml) is reported as 1.1 Folds and the “Folds of Melanin Enhancement compared to control” value ([1]; 1 μg/ml) is reported as 1.5* Folds. For the same compound, the “Folds of Melanin Enhancement compared to control” value ([1]; 2 μg/ml) was 1.8* Folds, the “Folds of Melanin Enhancement compared to control” value ([1]; 3 μg/ml) was 2.2* Folds and the “Folds of Melanin Enhancement compared to control” value ([1]; 5 μg/ml) was 2.8* Folds. For the same compound, the “Folds of Melanin Enhancement compared to control” value ([1]; 12 μg/ml) was 3.2* Folds and the “melanin enhancement activity, comparison in words” value (“melanin enhancement activity” below) [1] was “comparable to that of active 3”.
`C=C[C@@]1(C)CC(=O)[C@]2(O)[C@@]3(C)[C@@H](O)CCC(C)(C)[C@@H]3[C@H](OC(C)=O)[C@H](O)[C@@]2(C)O1` [Active II, 6β-acetoxy-8,13-epoxy-1α,7β,9α-trihydroxylabd-14-en-11-one] was tested, and the “No. of folds of Melanin Enhancement compared to control” value (“No. of folds of Melanin Enhancement” below) ([1]; 0.25 μg/ml) was 1 folds, the “No. of folds of Melanin Enhancement” value ([1]; 0.5 μg/ml) was 1.1 folds and the “No. of folds of Melanin Enhancement” value ([1]; 1 μg/ml) was 1.6* folds. The “No. of folds of Melanin Enhancement” value ([1]; 2 μg/ml) was 2.3* folds, the “No. of folds of Melanin Enhancement” value ([1]; 3 μg/ml) was 3* folds and the “No. of folds of Melanin Enhancement” value ([1]; 5 μg/ml) was 3.45* folds. The “No. of folds of Melanin Enhancement” value ([1]; 12 μg/ml) was 3.5* folds, the “dose levels still tolerated and effective, relative to the maximum tolerated dose levels of active III” value ([1]; mouse) was 2.4 times and the Melanin enhancement ([1]; summary in words, Table I) was “Moderate”. For the same compound, the “% UV B protection as compared to control” value ([2]; 0.25 μg/ml) was 0%, the “% UV B protection as compared to control” value ([2]; 0.5 μg/ml) was 0% and the “% UV B protection as compared to control” value ([2]; 1 μg/ml) was 15* %. For the same compound, the “% UV B protection as compared to control” value ([2]; 2 μg/ml) was 25* %, the “% UV B protection as compared to control” value ([2]; 3 μg/ml) was 28* % and the “% UV B protection as compared to control” value ([2]; 5 μg/ml) was 30* %. The “% UV B protection as compared to control” value ([2]; 12 μg/ml) was 35* %, the “UV protection UV B” value [2, 6] was “Moderate” and the “% UV A protection” value ([3]; 0.25 μg/ml) was 15* %. For the same compound, the “% UV A protection” value ([3]; 0.5 μg/ml) was 25* %, the “% UV A protection” value ([3]; 1 μg/ml) was 55* % and the “% UV A protection” value ([3]; 2 μg/ml) was 75* %. The “% UV A protection” value ([3]; 3 μg/ml) was 98* %, the “% UV A protection” value ([3]; 5 μg/ml) was 97* % and the “% UV A protection” value ([3]; 12 μg/ml) was 98* %. For the same compound, the “% UV B protection” value ([4]; 0.25 μg/ml) was 10* %, the “% UV B protection” value ([4]; 0.5 μg/ml) was 15* % and the “% UV B protection” value ([4]; 1 μg/ml) was 18* %. For the same compound, the “% UV B protection” value ([4]; 2 μg/ml) was 23* %, the “% UV B protection” value ([4]; 3 μg/ml) was 30* % and the “% UV B protection” value ([4]; 5 μg/ml) was 35* %. The “% UV B protection” value ([4]; 12 μg/ml) was 40* %, the “% UV A protection” value ([5]; 0.25 μg/ml) was 10% and the “% UV A protection” value ([5]; 0.5 μg/ml) was 13%. For the same compound, the “% UV A protection” value ([5]; 1 μg/ml) was 18* %, the “% UV A protection” value ([5]; 2 μg/ml) was 25* % and the “% UV A protection” value ([5]; 3 μg/ml) was 35* %. For the same compound, the “% UV A protection” value ([5]; 5 μg/ml) was 45* %, the “% UV A protection” value ([5]; 12 μg/ml) was 50* % and the “UV protection UV A” value [5, 6] was “Moderate”.
With `COc1c2occc2cc2ccc(=O)oc12` [Active 8-MOP, 8-Methoxy psoralen] the “Folds of Melanin Enhancement compared to control” value ([1]; 0.25 μg/ml) was 1.12 Folds, the “Folds of Melanin Enhancement compared to control” value ([1]; 0.5 μg/ml) was 1.25 Folds and the “Folds of Melanin Enhancement compared to control” value ([1]; 1 μg/ml) was 1.4* Folds. For the same compound, the “Folds of Melanin Enhancement compared to control” value ([1]; 2 μg/ml) was “toxic”, the “Folds of Melanin Enhancement compared to control” value ([1]; 3 μg/ml) was “toxic” and the “Folds of Melanin Enhancement compared to control” value ([1]; 5 μg/ml) was “toxic”. For the same compound, the “Folds of Melanin Enhancement compared to control” value ([1]; 12 μg/ml) was “toxic” and the “melanin enhancement activity” value [1] was “comparable to active III but inferior to active I”.
With `CC1(C)[C@@H](O[C@H]2O[C@H](C(=O)O)[C@@H](O)[C@H](O)[C@H]2O[C@@H]2O[C@H](C(=O)O)[C@@H](O)[C@H](O)[C@H]2O)CC[C@]2(C)[C@H]3C(=O)C=C4[C@@H]5C[C@@](C)(C(=O)O)CC[C@]5(C)CC[C@@]4(C)[C@]3(C)CC[C@@H]12` [Glycyrrhizin] the “Folds of Melanin Enhancement compared to control” value ([1]; 0.25 μg/ml) was 1.82* Folds, the “Folds of Melanin Enhancement compared to control” value ([1]; 0.5 μg/ml) was 2.25* Folds and the “Folds of Melanin Enhancement compared to control” value ([1]; 1 μg/ml) was 2.58* Folds. The “Folds of Melanin Enhancement compared to control” value ([1]; 2 μg/ml) was 2.76* Folds, the “Folds of Melanin Enhancement compared to control” value ([1]; 3 μg/ml) was 2.88* Folds and the “Folds of Melanin Enhancement compared to control” value ([1]; 5 μg/ml) was 2.92* Folds. The “Folds of Melanin Enhancement compared to control” value ([1]; 12 μg/ml) was 2.95* Folds and the “melanin enhancement activity” value [1] was “comparable to active III but inferior to active I”.
In the case of `C/C=C1\C(=O)C[C@H]2[C@@H]3CCC4=CC(=O)CC[C@]4(C)[C@H]3CC[C@]12C` [Gugulsterone, Guggulsterone], the “Folds of Melanin Enhancement compared to control” value ([1]; 0.25 μg/ml) is reported as 1.15 Folds, the “Folds of Melanin Enhancement compared to control” value ([1]; 0.5 μg/ml) is reported as 1.25 Folds and the “Folds of Melanin Enhancement compared to control” value ([1]; 1 μg/ml) is reported as 1.28 Folds. The “Folds of Melanin Enhancement compared to control” value ([1]; 2 μg/ml) was 1.38 Folds, the “Folds of Melanin Enhancement compared to control” value ([1]; 3 μg/ml) was 2.38* Folds and the “Folds of Melanin Enhancement compared to control” value ([1]; 5 μg/ml) was 2.45* Folds. The “Folds of Melanin Enhancement compared to control” value ([1]; 12 μg/ml) was 2.5* Folds and the “melanin enhancement activity” value [1] was “comparable to active III but inferior to active I”.
With `O=C(CCCCc1ccc2c(c1)OCO2)N1CCCCC1` [tetrahydropiperine] the toxicity to cells ([1]; Example 4) was “toxic to cells” and the “melanin enhancement activity” value [1] was “does not show significant melanin enhancement activity”.
For `CC(C)=CCOc1c2occc2cc2ccc(=O)oc12` [Imperatorin], the “Folds of Melanin Enhancement compared to control” value ([1]; 0.25 μg/ml) was 1.08 Folds, the “Folds of Melanin Enhancement compared to control” value ([1]; 0.5 μg/ml) was 1.25 Folds and the “Folds of Melanin Enhancement compared to control” value ([1]; 1 μg/ml) was 1.58* Folds. The “Folds of Melanin Enhancement compared to control” value ([1]; 2 μg/ml) was 1.78* Folds, the “Folds of Melanin Enhancement compared to control” value ([1]; 3 μg/ml) was 2.58* Folds and the “Folds of Melanin Enhancement compared to control” value ([1]; 5 μg/ml) was “toxic”. The “Folds of Melanin Enhancement compared to control” value ([1]; 12 μg/ml) was “toxic” and the “melanin enhancement activity” value [1] was “comparable to active III but inferior to active I”.
`C=CC1(C)CC(=O)C2C3(C)CCCC(C)(C)C3C(O)C(OC(C)=O)C2(C)O1` (stereo not drawn) [7β-Acetoxy-6β-hydroxy-8,13-epoxy-labd-14-en-11-one] was tested, and the “Folds of Melanin Enhancement compared to control” value ([1]; 0.25 μg/ml) was 1.1 Folds, the “Folds of Melanin Enhancement compared to control” value ([1]; 0.5 μg/ml) was 1.13 Folds and the “Folds of Melanin Enhancement compared to control” value ([1]; 1 μg/ml) was 1.4* Folds. The “Folds of Melanin Enhancement compared to control” value ([1]; 2 μg/ml) was 2* Folds, the “Folds of Melanin Enhancement compared to control” value ([1]; 3 μg/ml) was 2.1* Folds and the “Folds of Melanin Enhancement compared to control” value ([1]; 5 μg/ml) was 2.2* Folds. For the same compound, the “Folds of Melanin Enhancement compared to control” value ([1]; 12 μg/ml) was 3* Folds and the “melanin enhancement activity” value [1] was “comparable to that of active 3”.
With `COc1c2ccoc2cc2oc(=O)ccc12` [Active 5-MOP, 5-methoxy psoralen] the “Folds of Melanin Enhancement compared to control” value ([1]; 0.25 μg/ml) was 1.1 Folds, the “Folds of Melanin Enhancement compared to control” value ([1]; 0.5 μg/ml) was 1.15 Folds and the “Folds of Melanin Enhancement compared to control” value ([1]; 1 μg/ml) was 1.5* Folds. For the same compound, the “Folds of Melanin Enhancement compared to control” value ([1]; 2 μg/ml) was “toxic”, the “Folds of Melanin Enhancement compared to control” value ([1]; 3 μg/ml) was “toxic” and the “Folds of Melanin Enhancement compared to control” value ([1]; 5 μg/ml) was “toxic”. For the same compound, the “Folds of Melanin Enhancement compared to control” value ([1]; 12 μg/ml) was “toxic” and the “melanin enhancement activity” value [1] was “comparable to active III but inferior to active I”.
